Laboratory results from patent publication US12612395B2, “Rocaglate derivatives and uses thereof” (TRUSTEES OF BOSTON UNIVERSITY, priority 2023, dated 2026).

Assays:
[1] = system: BT112 CSCs; assay: Dose-response killing of CSCs in BT112 glioblastoma cell line; assay type: cell-based; settings: Homo sapiens, read-out: CSC EC50
Experimental: (§1) Cell Culture: Glioblastoma stem cell lines GBM0308, BT145, and BT112 were cultured in neurobasal (NBE medium) containing N-2 and B-27 supplements, EGF, bFGF, L-glutamine, and Penicillin-Streptomycin), as described previously.^19 Adherent GBM cells were cultured in serum-containing DMEM media (Invitrogen) supplemented with 10% fetal bovine serum (Corning Cellgro™). Cells were incubated at 37° C. and 5% CO2 to allow neurosphere formation. For seeding and subculturing, the neurospheres were gently trypsinized with 0.025% trypsin to form a single-cell suspension.
(§2) Dose-Response Testing in GBM Cells: Briefly, on day 1, cells were seeded in triplicate. For CSCs, 1500 cells/well were plated in a low attachment 96-well plate with NBE media and incubated for 3 days at 37° C. and 5% CO2 to allow the formation of neurospheres. For non-CSCs, 3000 cells/well were plated in a 96-well plate with DMEM media supplemented with 10% FBS. Similarly, the assay plates were also incubated for the same duration. Compound treatments started on day 4. […] After incubation, plates were read by Celigo imaging cytometer using an inbuilt Celigo application; Cell Viability (Dead+Total). For the viability measurement, the total number of neurospheres/cells and dead neurospheres/cells in each well were counted by the cytometer. […]

[2] = system: BT145 CSCs; assay: Dose-response killing of CSCs in BT145 glioblastoma cell line; assay type: cell-based; settings: Homo sapiens, read-out: CSC EC50
Experimental: as §1, §2

[3] = system: GBM0308 stem cells; assay: RNA sequencing of treated GBM CSCs; assay type: cell-based, human; settings: 0.1 μM and 1 μM, 12 h and 24 h
Excerpt: To understand the transcriptomic changes underlying (−)-20 effects on GBM CSCs, the inventors performed RNA sequencing experiments in these cells. […] Furthermore, upon compound treatment, the inventors observed the downregulation of several hallmark gene sets associated with critical cellular processes, including apoptosis, glycolysis, MTORC1 signaling, NOTCH signaling, epithelial-mesenchymal transition (EMT), and angiogenesis (FIGS. 5D and 18A). […] This observation emphasizes the complexity of cell death mechanisms and the potential origins of selectivity of (−)-20 against CSCs. […] (FIG. 5E).
RNA Sequencing and Analysis: GBM0308 cells cultured in NBE medium were treated with compound (−)-20 at concentrations of 0.1 μM, 1 μM and DMSO. At 12 h and 24 h timepoints, total RNA was extracted using RNeasy mini kit (Qiagen) as per the manufacturer's instruction. Preparation of the RNA library and transcriptome sequencing were conducted by Novogene. […]

Compound: COc1cc(OC)c2c(c1)O[C@@]1(c3ccc(Br)cc3)[C@H](c3ccccc3)[C@@H](C(=O)NS(=O)(=O)N(C)C)[C@@H](O)[C@@]21O [(−)-20, (1R,2R,3S,3aR,8bS)-3a-(4-bromophenyl)-N—(N,N-dimethylsulfamoyl)-1,8b-dihydroxy-6,8-dimethoxy-3-phenyl-2,3,3a,8b-tetrahydro-1H-cyclopenta[b]benzofuran-2-carboxamide]
- EC50 [1]: 34 nM
- EC50 [2]: 93 nM
- expression of genes involved in stem cell maintenance and survival (NOTCH1, NOTCH2, NOTCH3, SALL3, SOX2) [3]: downregulated
